How the values were obtained:
[1] = target: Cyclin-dependent kinase 1/cyclin B (Homo sapiens) (UniProt P06493+P14635+Q8WWL7+O95067); assay: CDK1/cyclinB( h) Millipore kinase activity assay; format: protein-complex assay; details: Compound concentration 1.0 uM
[2] = target: Sigma non-opioid intracellular receptor 1 (Homo sapiens) (UniProt Q99720); assay: Sigma 1 Eurofins-Panlabs radioligand binding assay; parameters: ligand concentration 8 nM; details: Compound concentration 10.0 uM
[3] = target: Rho-associated protein kinase 1 (Homo sapiens) (UniProt Q13464); assay: ROCK-I (h) Millipore kinase activity assay; details: Compound concentration 1.0 uM
[4] = target: T1, 5-hydroxytryptamine receptor 1A (Homo sapiens) (UniProt P08908); details: Compound concentration 10.0 uM
T1 sequence (whole entry): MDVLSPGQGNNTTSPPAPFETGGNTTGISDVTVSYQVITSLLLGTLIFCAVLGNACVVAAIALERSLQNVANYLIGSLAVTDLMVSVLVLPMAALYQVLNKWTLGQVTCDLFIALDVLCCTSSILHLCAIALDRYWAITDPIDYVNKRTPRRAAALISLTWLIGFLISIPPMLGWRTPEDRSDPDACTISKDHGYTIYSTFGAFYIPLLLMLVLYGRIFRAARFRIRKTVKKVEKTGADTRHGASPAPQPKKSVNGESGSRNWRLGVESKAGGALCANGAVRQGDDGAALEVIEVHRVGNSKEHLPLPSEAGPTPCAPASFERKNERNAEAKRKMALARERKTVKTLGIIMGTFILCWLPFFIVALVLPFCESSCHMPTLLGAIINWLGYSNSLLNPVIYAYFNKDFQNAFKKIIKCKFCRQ

[5] = target: Vascular endothelial growth factor receptor 1 (Homo sapiens) (UniProt P17948); assay: Flt1 (h) Millipore kinase activity assay; details: Compound concentration 1.0 uM
Chain of Vascular endothelial growth factor receptor 1 (Homo sapiens) (P17948 whole entry): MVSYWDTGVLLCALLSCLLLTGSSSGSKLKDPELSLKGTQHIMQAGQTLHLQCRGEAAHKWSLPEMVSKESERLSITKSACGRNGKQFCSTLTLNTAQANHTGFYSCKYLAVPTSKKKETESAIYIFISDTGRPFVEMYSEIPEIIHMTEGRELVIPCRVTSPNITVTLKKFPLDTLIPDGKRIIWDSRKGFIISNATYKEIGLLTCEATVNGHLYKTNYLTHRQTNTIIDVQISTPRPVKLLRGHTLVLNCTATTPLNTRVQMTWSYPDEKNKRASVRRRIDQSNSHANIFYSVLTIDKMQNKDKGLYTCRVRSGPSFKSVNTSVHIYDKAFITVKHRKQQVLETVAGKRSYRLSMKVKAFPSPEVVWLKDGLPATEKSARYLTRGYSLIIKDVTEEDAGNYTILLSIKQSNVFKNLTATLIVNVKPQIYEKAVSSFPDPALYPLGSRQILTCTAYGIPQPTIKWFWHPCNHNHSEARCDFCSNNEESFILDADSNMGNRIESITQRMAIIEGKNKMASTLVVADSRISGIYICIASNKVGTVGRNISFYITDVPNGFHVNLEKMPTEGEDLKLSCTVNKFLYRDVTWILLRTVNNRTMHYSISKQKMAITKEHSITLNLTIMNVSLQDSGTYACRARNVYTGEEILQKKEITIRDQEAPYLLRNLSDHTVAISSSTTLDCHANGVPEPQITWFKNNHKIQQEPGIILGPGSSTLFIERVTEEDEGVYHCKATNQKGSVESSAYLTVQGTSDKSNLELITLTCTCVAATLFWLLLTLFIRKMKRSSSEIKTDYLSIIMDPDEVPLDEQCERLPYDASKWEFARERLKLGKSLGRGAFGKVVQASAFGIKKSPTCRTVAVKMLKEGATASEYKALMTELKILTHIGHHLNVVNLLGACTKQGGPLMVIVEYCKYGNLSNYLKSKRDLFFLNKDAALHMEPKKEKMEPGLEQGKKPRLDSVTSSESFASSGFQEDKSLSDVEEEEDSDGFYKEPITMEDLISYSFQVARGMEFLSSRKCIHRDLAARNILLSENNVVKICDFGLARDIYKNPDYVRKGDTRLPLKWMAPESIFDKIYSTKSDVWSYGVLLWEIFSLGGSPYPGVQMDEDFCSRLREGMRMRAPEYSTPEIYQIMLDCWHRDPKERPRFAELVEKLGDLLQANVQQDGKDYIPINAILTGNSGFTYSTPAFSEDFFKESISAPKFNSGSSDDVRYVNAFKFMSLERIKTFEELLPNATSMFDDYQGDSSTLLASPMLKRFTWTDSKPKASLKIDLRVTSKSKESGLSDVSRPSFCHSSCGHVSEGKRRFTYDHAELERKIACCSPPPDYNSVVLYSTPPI

[6] = target: Tyrosine-protein kinase receptor UFO (Homo sapiens) (UniProt P30530); assay: Axl (h) Millipore kinase activity assay; details: Compound concentration 1.0 uM
[7] = target: Serine/threonine-protein kinase N2 (Homo sapiens) (UniProt Q16513); assay: PRK2 (h) Millipore kinase activity assay; details: Compound concentration 1.0 uM
[8] = target: Sodium-dependent serotonin transporter (Homo sapiens) (UniProt P31645); details: Compound concentration 10.0 uM
[9] = target: Tyrosine-protein kinase ABL1 (Homo sapiens) (UniProt P00519); assay: Abl (h) Millipore kinase activity assay; details: Compound concentration 1.0 uM
[10] = target: Tyrosine-protein kinase Fgr (Homo sapiens) (UniProt P09769); assay: Fgr (h) Millipore kinase activity assay; details: Compound concentration 1.0 uM
Chain of Tyrosine-protein kinase Fgr (Homo sapiens) (P09769 2-529 limits assumed): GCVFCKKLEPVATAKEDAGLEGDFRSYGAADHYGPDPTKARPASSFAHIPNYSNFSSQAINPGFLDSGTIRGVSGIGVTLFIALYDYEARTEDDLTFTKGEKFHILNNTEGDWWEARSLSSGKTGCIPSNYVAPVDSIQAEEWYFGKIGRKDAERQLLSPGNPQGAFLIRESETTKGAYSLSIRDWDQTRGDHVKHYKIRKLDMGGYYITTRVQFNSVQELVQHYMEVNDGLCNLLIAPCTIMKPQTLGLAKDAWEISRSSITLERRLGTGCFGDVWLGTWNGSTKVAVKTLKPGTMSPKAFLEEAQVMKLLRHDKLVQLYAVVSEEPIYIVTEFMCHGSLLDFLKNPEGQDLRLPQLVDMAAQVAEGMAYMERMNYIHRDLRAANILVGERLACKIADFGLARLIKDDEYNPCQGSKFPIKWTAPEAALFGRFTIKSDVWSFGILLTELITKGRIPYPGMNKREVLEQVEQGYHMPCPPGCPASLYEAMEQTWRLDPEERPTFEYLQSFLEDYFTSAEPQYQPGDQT

[11] = target: Protein kinase C beta type (Homo sapiens) (UniProt P05771); assay: PKCbetaI (h) Millipore kinase activity assay; details: Compound concentration 1.0 uM
Chain of Protein kinase C beta type (Homo sapiens) (P05771 2-671 limits assumed): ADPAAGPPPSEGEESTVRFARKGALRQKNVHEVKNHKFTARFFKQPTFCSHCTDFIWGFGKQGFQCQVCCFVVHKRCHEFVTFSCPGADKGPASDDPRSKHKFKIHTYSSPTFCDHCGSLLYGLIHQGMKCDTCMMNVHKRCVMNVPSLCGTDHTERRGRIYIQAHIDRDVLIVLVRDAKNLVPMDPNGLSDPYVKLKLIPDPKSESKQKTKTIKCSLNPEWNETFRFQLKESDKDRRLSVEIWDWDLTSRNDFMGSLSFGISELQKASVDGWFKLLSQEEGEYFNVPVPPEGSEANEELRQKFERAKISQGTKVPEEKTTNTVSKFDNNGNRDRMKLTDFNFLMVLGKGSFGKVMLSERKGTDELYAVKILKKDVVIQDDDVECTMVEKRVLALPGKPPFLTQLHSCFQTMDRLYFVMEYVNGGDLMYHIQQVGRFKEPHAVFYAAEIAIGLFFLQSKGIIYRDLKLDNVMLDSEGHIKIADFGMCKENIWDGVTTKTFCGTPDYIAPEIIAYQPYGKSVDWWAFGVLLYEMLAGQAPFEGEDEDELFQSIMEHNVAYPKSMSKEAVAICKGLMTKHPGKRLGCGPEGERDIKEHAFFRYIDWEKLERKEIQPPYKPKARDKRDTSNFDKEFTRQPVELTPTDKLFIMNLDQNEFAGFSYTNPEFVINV

[12] = target: Kappa-type opioid receptor (Homo sapiens) (UniProt P41145); details: Compound concentration 10.0 uM
Chain of Kappa-type opioid receptor (Homo sapiens) (P41145 whole entry): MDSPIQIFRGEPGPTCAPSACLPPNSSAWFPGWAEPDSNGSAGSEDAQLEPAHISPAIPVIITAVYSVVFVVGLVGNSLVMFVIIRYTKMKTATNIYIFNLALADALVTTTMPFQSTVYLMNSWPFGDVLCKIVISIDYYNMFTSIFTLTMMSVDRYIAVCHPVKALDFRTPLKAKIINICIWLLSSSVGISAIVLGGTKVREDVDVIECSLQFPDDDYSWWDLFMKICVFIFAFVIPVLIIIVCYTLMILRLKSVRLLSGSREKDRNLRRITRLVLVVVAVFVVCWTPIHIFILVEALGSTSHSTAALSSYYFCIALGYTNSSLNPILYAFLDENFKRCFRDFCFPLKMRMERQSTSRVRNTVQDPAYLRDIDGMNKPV

[13] = target: D(3) dopamine receptor (Homo sapiens) (UniProt P35462); details: Compound concentration 10.0 uM
[14] = target: Serine/threonine-protein kinase MARK2 (Homo sapiens) (UniProt Q7KZI7); assay: PAR-1Balpha (h) Millipore kinase activity assay; details: Compound concentration 1.0 uM
[15] = target: Activin receptor type-1 (Homo sapiens) (UniProt Q04771); details: Compound concentration 1000.0 nM
[16] = target: Proto-oncogene tyrosine-protein kinase Src (Homo sapiens) (UniProt P12931); details: Compound concentration 1000.0 nM
[17] = target: Glycogen synthase kinase-3 beta (Homo sapiens) (UniProt P49841); details: Compound concentration 1000.0 nM
[18] = tested on: Phosphatidylinositol 4,5-bisphosphate 3-kinase catalytic subunit alpha isoform (Homo sapiens), P42336 [E542K]; details: Compound concentration 1000.0 nM
[19] = target: Calcium/calmodulin-dependent protein kinase type 1D (Homo sapiens) (UniProt Q8IU85); details: Compound concentration 1000.0 nM
[20] = target: Mitogen-activated protein kinase kinase kinase 13 (Homo sapiens) (UniProt O43283); details: Compound concentration 1000.0 nM
[21] = target: AP2-associated protein kinase 1 (Homo sapiens) (UniProt Q2M2I8); details: Compound concentration 1000.0 nM
[22] = target: Calcium-dependent protein kinase 1 (Plasmodium falciparum) (UniProt P62344); details: Compound concentration 1000.0 nM
[23] = target: Tyrosine-protein kinase Fgr (Homo sapiens) (UniProt P09769); details: Compound concentration 1000.0 nM
[24] = target: Tyrosine-protein kinase Tec (Homo sapiens) (UniProt P42680); details: Compound concentration 1000.0 nM
[25] = target: Activated CDC42 kinase 1 (Homo sapiens) (UniProt Q07912); details: Compound concentration 1000.0 nM
[26] = target: Phosphatidylinositol 4,5-bisphosphate 3-kinase catalytic subunit beta isoform (Homo sapiens) (UniProt P42338); details: Compound concentration 1000.0 nM
[27] = target: Serine/threonine-protein kinase MRCK beta (Homo sapiens) (UniProt Q9Y5S2); details: Compound concentration 1000.0 nM
Chain of Serine/threonine-protein kinase MRCK beta (Homo sapiens) (Q9Y5S2 whole entry): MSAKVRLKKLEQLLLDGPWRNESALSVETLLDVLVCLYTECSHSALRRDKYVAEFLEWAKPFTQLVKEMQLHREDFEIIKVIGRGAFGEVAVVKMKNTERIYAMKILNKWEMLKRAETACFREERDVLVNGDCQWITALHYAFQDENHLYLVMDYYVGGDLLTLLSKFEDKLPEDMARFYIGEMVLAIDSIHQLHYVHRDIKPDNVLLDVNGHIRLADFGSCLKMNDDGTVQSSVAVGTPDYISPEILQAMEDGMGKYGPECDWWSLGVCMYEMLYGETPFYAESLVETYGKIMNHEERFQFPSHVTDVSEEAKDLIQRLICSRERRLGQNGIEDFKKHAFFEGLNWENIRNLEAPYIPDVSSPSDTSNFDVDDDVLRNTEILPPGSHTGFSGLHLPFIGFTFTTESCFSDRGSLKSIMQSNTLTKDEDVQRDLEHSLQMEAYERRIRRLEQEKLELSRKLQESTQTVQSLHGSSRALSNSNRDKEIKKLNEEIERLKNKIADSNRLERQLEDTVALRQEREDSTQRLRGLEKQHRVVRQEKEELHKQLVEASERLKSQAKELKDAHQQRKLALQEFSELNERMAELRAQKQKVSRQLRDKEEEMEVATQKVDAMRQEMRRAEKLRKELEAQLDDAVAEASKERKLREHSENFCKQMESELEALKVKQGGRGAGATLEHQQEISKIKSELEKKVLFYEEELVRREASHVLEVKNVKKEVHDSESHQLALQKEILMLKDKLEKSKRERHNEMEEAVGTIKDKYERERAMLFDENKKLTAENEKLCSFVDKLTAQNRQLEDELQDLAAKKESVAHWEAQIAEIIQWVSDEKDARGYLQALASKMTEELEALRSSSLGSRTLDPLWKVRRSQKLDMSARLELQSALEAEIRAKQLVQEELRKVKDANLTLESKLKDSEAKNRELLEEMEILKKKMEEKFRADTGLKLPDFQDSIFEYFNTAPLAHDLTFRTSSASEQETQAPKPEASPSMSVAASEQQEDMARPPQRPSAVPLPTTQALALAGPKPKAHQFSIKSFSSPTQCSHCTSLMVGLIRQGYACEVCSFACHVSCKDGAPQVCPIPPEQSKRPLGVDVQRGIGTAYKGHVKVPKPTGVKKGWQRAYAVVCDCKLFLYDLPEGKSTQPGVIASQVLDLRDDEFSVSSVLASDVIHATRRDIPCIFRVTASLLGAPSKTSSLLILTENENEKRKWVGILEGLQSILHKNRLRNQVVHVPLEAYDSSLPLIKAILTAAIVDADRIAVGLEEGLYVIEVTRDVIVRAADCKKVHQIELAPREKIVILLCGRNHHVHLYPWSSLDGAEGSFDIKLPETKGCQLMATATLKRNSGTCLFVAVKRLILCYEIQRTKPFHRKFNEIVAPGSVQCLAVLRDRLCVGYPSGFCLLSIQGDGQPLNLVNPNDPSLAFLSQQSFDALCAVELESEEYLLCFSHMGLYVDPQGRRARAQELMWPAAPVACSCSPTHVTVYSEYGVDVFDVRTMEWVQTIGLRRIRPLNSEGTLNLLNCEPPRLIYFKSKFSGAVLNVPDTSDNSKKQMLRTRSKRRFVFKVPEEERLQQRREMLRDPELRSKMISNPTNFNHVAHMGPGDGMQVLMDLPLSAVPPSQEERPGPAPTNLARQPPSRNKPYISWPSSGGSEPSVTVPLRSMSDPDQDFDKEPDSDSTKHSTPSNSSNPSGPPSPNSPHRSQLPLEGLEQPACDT

[28] = target: Homeodomain-interacting protein kinase 2 (Homo sapiens) (UniProt Q9H2X6); details: Compound concentration 1000.0 nM
[29] = target: Testis-specific serine/threonine-protein kinase 3 (Homo sapiens) (UniProt Q96PN8); details: Compound concentration 1000.0 nM
Chain of Testis-specific serine/threonine-protein kinase 3 (Homo sapiens) (Q96PN8 whole entry): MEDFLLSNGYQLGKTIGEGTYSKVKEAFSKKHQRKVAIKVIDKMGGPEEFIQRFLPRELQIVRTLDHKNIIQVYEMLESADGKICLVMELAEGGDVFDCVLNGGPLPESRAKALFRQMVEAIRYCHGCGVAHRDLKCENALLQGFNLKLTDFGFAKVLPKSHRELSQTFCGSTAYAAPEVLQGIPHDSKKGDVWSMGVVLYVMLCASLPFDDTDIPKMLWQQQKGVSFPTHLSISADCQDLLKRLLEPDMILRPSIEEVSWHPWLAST

[30] = tested on: Mast/stem cell growth factor receptor Kit (Homo sapiens), P10721 [V559D,T670I]; details: Compound concentration 1000.0 nM
[31] = tested on: Receptor-type tyrosine-protein kinase FLT3 (Homo sapiens), P36888 [D835V]; details: Compound concentration 1000.0 nM
[32] = target: Casein kinase I isoform alpha (Homo sapiens) (UniProt P48729); details: Compound concentration 1000.0 nM
[33] = target: Mitogen-activated protein kinase 8 (Homo sapiens) (UniProt P45983); details: Compound concentration 1000.0 nM
[34] = target: Cyclin-dependent kinase 17 (Homo sapiens) (UniProt Q00537); details: Compound concentration 1000.0 nM
[35] = target: Serine/threonine-protein kinase tousled-like 1 (Homo sapiens) (UniProt Q9UKI8); details: Compound concentration 1000.0 nM
[36] = target: Interleukin-1 receptor-associated kinase 1 (Homo sapiens) (UniProt P51617); details: Compound concentration 1000.0 nM
[37] = target: Serine/threonine-protein kinase B-raf (Homo sapiens) (UniProt P15056); details: Compound concentration 1000.0 nM
[38] = target: RAF proto-oncogene serine/threonine-protein kinase (Homo sapiens) (UniProt P04049); details: Compound concentration 1000.0 nM
[39] = target: Calcium/calmodulin-dependent protein kinase type II subunit beta (Homo sapiens) (UniProt Q13554); details: Compound concentration 1000.0 nM
[40] = tested on: Hepatocyte growth factor receptor (Homo sapiens), P08581 [Y1235D]; details: Compound concentration 1000.0 nM

CC1=C(C#N)C(c2ccc3[nH]nc(C)c3c2)C(C#N)=C(C)N1 [BAY-474]
inactive: inhibition [1] 16% | inhibition [2] 15% | inhibition [3] 1% | inhibition [4] -9% | inhibition [5] 69% | inhibition [6] 12% | inhibition [7] 9% | inhibition [8] 9% | inhibition [9] -2% | inhibition [10] 14% | inhibition [11] -4% | inhibition [12] 8.26% | inhibition [13] 18.1% | inhibition [14] 26%

CC1=C(C#N)[C@@H](c2ccc3[nH]nc(C)c3c2)C(C#N)=C(c2ccc(Cl)cc2)N1 [BAY-827]
inactive: residual activity [15] 100% | residual activity [16] 100% | residual activity [17] 69.6% | residual activity [18] 78.6% | residual activity [19] 100% | residual activity [20] 100% | residual activity [21] 100% | residual activity [22] 100% | residual activity [23] 100% | residual activity [24] 100% | residual activity [25] 100% | residual activity [26] 100% | residual activity [27] 100% | residual activity [28] 86.1% | residual activity [29] 100% | residual activity [30] 84.4% | residual activity [31] 89.7% | residual activity [32] 64.7% | residual activity [33] 65.2% | residual activity [34] 87.2% | residual activity [35] 100% | residual activity [36] 100% | residual activity [37] 100% | residual activity [38] 100% | residual activity [39] 100% | residual activity [40] 52.6%

Reference: ChEMBL document CHEMBL4507263, “Data for DCP probe BAY-474” (2021)
